Experimental data reported in ChEMBL document CHEMBL5537120 (Eur J Med Chem, 2024).
Calls of active or inactive are those of the source. The rule behind the calls is not given here. Where a SMILES comes first, the peptide text is derived from it. Bridges are numbered along the chain shown (N, C = ends).

Key:
SARS-CoV-2 [1] = test: microbe, parasite or virus in culture; settings: Severe acute respiratory syndrome coronavirus 2, Omicron BA.2.75, HEK-293T, 49 h, read-out: INH
SARS-CoV-2 [2] = test: microbe, parasite or virus in culture; settings: Severe acute respiratory syndrome coronavirus 2, Beta, HEK-293T
Description: Antiviral activity against HIV-1 pseudotyped SARS-CoV-2 Beta infected in HEK293T cells expressing ACE2/NRP1 assessed as reduction in infection rate pretreated with cells for 1 hr followed by viral infection and measured after 2 days by firefly luciferase reporter gene assay

SARS-CoV-2 [3] = test: Antiviral activity against HIV-1 pseudotyped SARS-CoV-2 Omicron BA.2.75 infected in HEK293T cells expressing ACE2/NRP1 assessed as reduction in viral replication at 1.6 uM pretreated with cells for 1 hr followed by viral infection and measured after 2 days by firefly luciferase reporter gene assay; format: functional, organism-based; settings: Severe acute respiratory syndrome coronavirus 2, time 49.0 hrs
Neuropilin-1 = Neuropilin-1 (Homo sapiens, UniProt O14786); test: Binding affinity to NRP1 (unknown origin) by MST analysis
SARS-CoV-2 [4] = test: microbe, parasite or virus in culture; settings: Severe acute respiratory syndrome coronavirus 2, Alpha, HEK-293T
Description: Antiviral activity against HIV-1 pseudotyped SARS-CoV-2 Alpha infected in HEK293T cells expressing ACE2/NRP1 assessed as reduction in infection rate pretreated with cells for 1 hr followed by viral infection and measured after 2 days by firefly luciferase reporter gene assay

SARS-CoV-2 [5] = test: microbe, parasite or virus in culture; settings: Severe acute respiratory syndrome coronavirus 2, Delta, HEK-293T
Description: Antiviral activity against HIV-1 pseudotyped SARS-CoV-2 Delta infected in HEK293T cells expressing ACE2/NRP1 assessed as reduction in infection rate pretreated with cells for 1 hr followed by viral infection and measured after 2 days by firefly luciferase reporter gene assay

SARS-CoV-2 [6] = test: microbe, parasite or virus in culture; settings: Severe acute respiratory syndrome coronavirus 2, Omicron BA.2.75, HEK-293T
Description: Antiviral activity against HIV-1 pseudotyped SARS-CoV-2 Omicron BA.2.75 infected in HEK293T cells expressing ACE2/NRP1 assessed as reduction in infection rate pretreated with cells for 1 hr followed by viral infection and measured after 2 days by firefly luciferase reporter gene assay

[7] = target: Angiotensin-converting enzyme 2 (Homo sapiens, UniProt Q9BYF1); test: Binding affinity to ACE2 (unknown origin) by MST analysis
Sequence of Angiotensin-converting enzyme 2 (Q9BYF1 whole entry): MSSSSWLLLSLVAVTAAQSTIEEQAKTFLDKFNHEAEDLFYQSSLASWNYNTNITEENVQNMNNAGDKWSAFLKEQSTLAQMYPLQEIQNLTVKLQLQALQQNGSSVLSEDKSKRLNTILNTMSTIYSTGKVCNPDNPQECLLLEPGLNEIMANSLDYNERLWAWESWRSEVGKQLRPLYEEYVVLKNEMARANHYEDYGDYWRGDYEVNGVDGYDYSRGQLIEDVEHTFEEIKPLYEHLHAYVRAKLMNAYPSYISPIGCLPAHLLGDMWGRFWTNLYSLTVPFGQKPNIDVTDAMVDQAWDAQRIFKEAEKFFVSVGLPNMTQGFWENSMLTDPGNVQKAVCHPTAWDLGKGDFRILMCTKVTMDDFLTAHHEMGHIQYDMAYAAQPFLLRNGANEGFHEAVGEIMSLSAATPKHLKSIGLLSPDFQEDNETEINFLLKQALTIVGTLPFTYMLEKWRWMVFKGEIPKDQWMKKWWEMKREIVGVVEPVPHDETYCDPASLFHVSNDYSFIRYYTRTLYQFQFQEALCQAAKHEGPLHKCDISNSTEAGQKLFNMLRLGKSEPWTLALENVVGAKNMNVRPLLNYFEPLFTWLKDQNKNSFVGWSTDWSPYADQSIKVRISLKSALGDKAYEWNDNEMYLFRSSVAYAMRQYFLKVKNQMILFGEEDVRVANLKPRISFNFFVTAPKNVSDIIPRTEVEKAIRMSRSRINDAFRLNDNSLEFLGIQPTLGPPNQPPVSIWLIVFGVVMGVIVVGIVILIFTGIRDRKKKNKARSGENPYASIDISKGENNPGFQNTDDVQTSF

Sequence of Neuropilin-1 (O14786 whole entry): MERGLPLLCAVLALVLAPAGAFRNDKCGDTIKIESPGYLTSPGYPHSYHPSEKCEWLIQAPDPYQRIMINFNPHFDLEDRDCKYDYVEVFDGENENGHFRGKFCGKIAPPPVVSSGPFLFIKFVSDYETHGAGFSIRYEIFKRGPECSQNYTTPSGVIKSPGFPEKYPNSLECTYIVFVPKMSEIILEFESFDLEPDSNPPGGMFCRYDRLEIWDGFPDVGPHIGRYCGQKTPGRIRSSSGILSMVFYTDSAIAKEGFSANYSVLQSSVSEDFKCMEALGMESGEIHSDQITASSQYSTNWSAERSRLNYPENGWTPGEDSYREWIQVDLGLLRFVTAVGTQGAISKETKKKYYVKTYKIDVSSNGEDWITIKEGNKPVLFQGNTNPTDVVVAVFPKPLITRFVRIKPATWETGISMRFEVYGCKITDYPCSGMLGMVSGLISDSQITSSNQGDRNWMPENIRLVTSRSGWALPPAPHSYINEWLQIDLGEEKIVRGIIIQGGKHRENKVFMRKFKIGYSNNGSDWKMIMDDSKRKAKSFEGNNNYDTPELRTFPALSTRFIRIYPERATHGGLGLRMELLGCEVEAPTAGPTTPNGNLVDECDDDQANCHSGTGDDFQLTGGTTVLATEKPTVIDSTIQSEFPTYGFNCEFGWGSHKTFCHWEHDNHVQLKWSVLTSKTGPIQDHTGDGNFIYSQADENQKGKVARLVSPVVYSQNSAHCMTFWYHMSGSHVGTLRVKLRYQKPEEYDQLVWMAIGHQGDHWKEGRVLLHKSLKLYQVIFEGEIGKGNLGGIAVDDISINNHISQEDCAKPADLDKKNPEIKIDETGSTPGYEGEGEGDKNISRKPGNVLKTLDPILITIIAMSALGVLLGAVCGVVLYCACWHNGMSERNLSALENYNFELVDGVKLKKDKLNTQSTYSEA

Row | Structure (SMILES) | inhibition at 1.6 µM (SARS-CoV-2 [1]) [%] | EC50 (SARS-CoV-2 [2]) [nM] | Activity (SARS-CoV-2 [3]) | Kd (Neuropilin-1) [nM] | EC50 (SARS-CoV-2 [4]) [nM] | EC50 (SARS-CoV-2 [5]) [nM] | EC50 (SARS-CoV-2 [6]) [nM] | Kd [7]
1 | CC(C)C[C@@H]1NC(=O)[C@@H]2CCCN2C(=O)[C@H](CO)NC(=O)[C@@H](NC(=O)[C@H](Cc2cnc[nH]2)NC(=O)[C@H](CO)NC(=O)[C@H](Cc2ccccc2)NC(=O)[C@H](CC(=O)O)NC(=O)CN)CSSC[C@@H](C(=O)N[C@H](C(=O)N[C@@H](Cc2ccc(O)cc2)C(=O)N2CCC[C@H]2C(=O)N[C@@H](CC(=O)O)C(=O)N2CCC[C@H]2C(=O)N[C@@H](CCC(=O)O)C(=O)NCC(=O)NCC(=O)NCC(=O)N[C@@H](CCCCN)C(=O)N2CCC[C@H]2C(=O)N[C@@H](C)C(=O)N[C@@H](CCCNC(=N)N)C(=O)N2CCC[C@H]2C(=O)N[C@@H](C)C(=O)N[C@@H](CCCNC(=N)N)C(=O)O)[C@@H](C)O)NC(=O)[C@H](CCCCN)NC(=O)[C@H](Cc2ccccc2)NC(=O)[C@H](Cc2c[nH]c3ccccc23)NC(=O)[C@@H]2CCCN2C(=O)[C@H](Cc2ccccc2)NC(=O)[C@H](Cc2ccc(O)cc2)NC(=O)[C@H](CCCNC(=N)N)NC1=O (H-GDFSHCSPLRYFPWFKCTYPDPEGGGKPARPAR-OH; disulfide 6-17) | 70 | 2190 | Active | 13.4 | 2730 | 1200 | 450 | 
2 | CSCC[C@@H](NC(=O)CNC(=O)CNC(=O)[C@@H](Cc1ccc(O)cc1)NC(=O)[C@@H](Cc1c[nH]c2ccccc12)NC(=O)CNC(=O)[C@@H](Cc1ccc(O)cc1)NC(=O)[C@@H](Cc1ccccc1)NC(=O)[C@@H](Cc1ccccc1)NC(=O)Cc1ccc2ccccc2c1)C(=O)N[C@H](CCC(=O)O)C(=O)N[C@H](CCCCN)C(=O)N[C@H](CC(C)C)C(=O)N[C@H](CC(C)C)C(=O)N[C@H](CCCNC(=N)N)C(=O)NCC(=O)NCC(=O)N[C@H](CCCNC(=N)N)C(=O)NCC(=O)N[C@H](CCC(=O)O)C(=O)N[C@H](CCCNC(=N)N)C(=O)N1CCC[C@@H]1C(=O)N1CCC[C@@H]1C(=O)N[C@H](CCCNC(=N)N)C(=O)O |  |  |  | 106 |  |  |  | Not Active
3 | CC[C@H](C)[C@H](NC(=O)[C@H](Cc1ccccc1)NC(=O)[C@H](CCCCN)NC(=O)[C@H](CC(=O)O)NC(=O)CN)C(=O)N[C@H]1CSSC[C@@H](C(=O)N[C@@H](CC(N)=O)C(=O)N[C@@H](Cc2c[nH]c3ccccc23)C(=O)N[C@@H](Cc2ccc(O)cc2)C(=O)N[C@@H](CC(=O)O)C(=O)N2CCC[C@H]2C(=O)N[C@@H](CCC(=O)O)C(=O)NCC(=O)NCC(=O)NCC(=O)N[C@@H](CCCCN)C(=O)NCC(=O)N[C@@H](CC(N)=O)C(=O)N[C@@H](CCCNC(=N)N)C(=O)N2CCC[C@H]2C(=O)N2CCC[C@H]2C(=O)N[C@@H](CCCNC(=N)N)C(=O)O)NC(=O)[C@H](Cc2ccccc2)NC(=O)[C@H](CCCCN)NC(=O)[C@H](Cc2c[nH]c3ccccc23)NC(=O)[C@@H]2CCCN2C(=O)[C@H](CCCCN)NC(=O)[C@H](CC(=O)O)NC(=O)[C@H](CCCNC(=N)N)NC(=O)[C@H]([C@@H](C)CC)NC(=O)[C@@H]2CCCN2C(=O)[C@H](CC(C)C)NC1=O (H-GDKFICLPIRDKPWKFCNWYDPEGGGKGNRPPR-OH; disulfide 6-17) |  |  | Active | 96.7 |  |  |  | 
4 | CC(C)C[C@@H]1NC(=O)[C@H](C)NC(=O)[C@H](CCCNC(=N)N)NC(=O)[C@@H](NC(=O)[C@@H]2CCCN2C(=O)[C@H](CO)NC(=O)[C@H](Cc2ccc(O)cc2)NC(=O)[C@H](CC(=O)O)NC(=O)CN)CSSC[C@@H](C(=O)N2CCC[C@H]2C(=O)N[C@@H](CO)C(=O)NCC(=O)N[C@@H](CC(=O)O)C(=O)N2CCC[C@H]2C(=O)N[C@@H](CCC(=O)O)C(=O)NCC(=O)NCC(=O)NCC(=O)N[C@@H](CCCNC(=N)N)C(=O)NCC(=O)N[C@@H](CCCNC(=N)N)C(=O)N[C@@H](CCCNC(=N)N)C(=O)N2CCC[C@H]2C(=O)N2CCC[C@H]2C(=O)N[C@@H](CCCNC(=N)N)C(=O)O)NC(=O)[C@H](CCCNC(=N)N)NC(=O)[C@H](Cc2c[nH]c3ccccc23)NC(=O)[C@H](Cc2c[nH]c3ccccc23)NC(=O)[C@@H]2CCCN2C(=O)[C@H](CO)NC(=O)[C@H](Cc2cnc[nH]2)NC(=O)[C@H](CCCNC(=N)N)NC1=O (H-GDYSPCRALRHSPWWRCPSGDPEGGGRGRRPPR-OH; disulfide 6-17) |  |  | Active | 76.3 |  |  |  | 
5 | CC[C@H](C)[C@@H]1NC(=O)[C@@H]2CCCN2C(=O)[C@H](CO)NC(=O)[C@@H](NC(=O)[C@@H](NC(=O)[C@H](Cc2ccc(O)cc2)NC(=O)[C@H](CCCNC(=N)N)NC(=O)[C@H](CC(=O)O)NC(=O)CN)[C@@H](C)O)CSSC[C@@H](C(=O)N[C@@H](CC(=O)O)C(=O)N[C@@H](CC(C)C)C(=O)NCC(=O)N[C@@H](CC(=O)O)C(=O)N2CCC[C@H]2C(=O)N[C@@H](CCC(=O)O)C(=O)NCC(=O)NCC(=O)NCC(=O)N[C@@H](CCCCN)C(=O)N[C@@H](C)C(=O)N2CCC[C@H]2C(=O)N[C@@H](CCCNC(=N)N)C(=O)N[C@@H](CCCNC(=N)N)C(=O)N[C@@H](C)C(=O)N[C@@H](CCCNC(=N)N)C(=O)O)NC(=O)[C@H](CCCNC(=N)N)NC(=O)[C@H](Cc2c[nH]c3ccccc23)NC(=O)[C@H](Cc2c[nH]c3ccccc23)NC(=O)[C@@H]2CCCN2C(=O)[C@H](Cc2ccccc2)NC(=O)[C@H](CCSC)NC(=O)[C@H](CCCNC(=N)N)NC1=O (H-GDRYTCSPIRMFPWWRCDLGDPEGGGKAPRRAR-OH; disulfide 6-17) |  |  | Active | 22.5 |  |  |  | 
6 | CC(C)C[C@H](NC(=O)[C@H](CC(=O)O)NC(=O)CN)C(=O)N[C@@H](Cc1cnc[nH]1)C(=O)N[C@@H](C)C(=O)N[C@H]1CSSC[C@@H](C(=O)N[C@H](C(=O)N[C@@H](CC(C)C)C(=O)NCC(=O)N[C@@H](CC(=O)O)C(=O)N2CCC[C@H]2C(=O)N[C@@H](CCC(=O)O)C(=O)NCC(=O)NCC(=O)NCC(=O)N[C@@H](CCCNC(=N)N)C(=O)N[C@@H](CO)C(=O)N2CCC[C@H]2C(=O)N[C@@H](CCCNC(=N)N)C(=O)N[C@@H](CCCNC(=N)N)C(=O)N[C@@H](C)C(=O)N[C@@H](CCCNC(=N)N)C(=O)O)[C@@H](C)O)NC(=O)[C@H](C)NC(=O)[C@H](Cc2c[nH]c3ccccc23)NC(=O)[C@H](Cc2c[nH]c3ccccc23)NC(=O)[C@@H]2CCCN2C(=O)[C@H](CC(=O)O)NC(=O)CNC(=O)[C@H](CCCNC(=N)N)NC(=O)[C@H](C(C)C)NC(=O)[C@@H]2CCCN2C(=O)[C@H](CCCNC(=N)N)NC1=O (H-GDLHACRPVRGDPWWACTLGDPEGGGRSPRRAR-OH; disulfide 6-17) |  |  | Active | 17.6 |  |  |  | 
